# Source: PubChem BioAssay (NCI)
#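 Each compound was tested at five concentrations against cells in 96-well plates for 48 hours. The concentration for full growth arrest is given as TGI.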
# Assays:
# Assay in all cases: inhibition of tumour cell growth, NCI panel, 48 h
# [1] = system: UO-31 renal
# [2] = system: HOP-62 NSCLC
# [3] = system: HCT-15 colon
# [4] = system: T-47D breast
# [5] = system: HCT-116 colon
# [6] = system: UACC-62 melanoma
# [7] = system: 786-0 renal
# [8] = system: A498 renal
# [9] = system: A549 NSCLC
# [10] = system: PC-3 prostate
# [11] = system: NCI-H23 lung
# [12] = system: U251 CNS
# [13] = system: CCRF-CEM leukemia
# [14] = system: NCI-H226 lung
# [15] = system: MDA-MB-231 breast
# [16] = system: MALME-3M melanoma
# [17] = system: SF-268 CNS
# [18] = system: OVCAR-5 ovarian
# [19] = system: COLO 205 colon
# [20] = system: MDA-N
# [21] = system: CAKI-1 renal
# [22] = system: OVCAR-4 ovarian
# [23] = system: SK-MEL-5 melanoma
# [24] = system: SK-MEL-2 melanoma
# [25] = system: NCI/ADR-RES ovarian
# [26] = system: DU-145 prostate
# [27] = system: RPMI-8226 leukemia
# [28] = system: RXF 393 renal
# [29] = system: M14 melanoma
# [30] = system: SK-OV-3 ovarian
# [31] = system: NCI-H460 lung
# [32] = system: IGROV1 ovarian
# [33] = system: TK-10 renal
# [34] = system: KM12 colon
# [35] = system: BT-549 breast
# [36] = system: SR leukemia
# [37] = system: HOP-92 NSCLC
# [38] = system: UACC-257 melanoma
# [39] = system: SW-620 colon
# [40] = system: OVCAR-8 ovarian
# [41] = system: HCC-2998 colon
# [42] = system: EKVX NSCLC
# [43] = system: SF-295 CNS
# [44] = system: SNB-75 CNS
# [45] = system: SNB-19 CNS
# [46] = system: SK-MEL-28 melanoma
# [47] = system: ACHN renal
# [48] = system: MDA-MB-435
# [49] = system: HT29 colon
# [50] = system: SN12C renal
# [51] = system: OVCAR-3 ovarian
# [52] = system: HS 578T breast
# [53] = system: MCF7 breast
# [54] = system: MOLT-4 leukemia
# [55] = system: NCI-H522 lung
# [56] = system: LOX IMVI melanoma
# [57] = system: K-562 leukemia
# [58] = system: SF-539 CNS
# [59] = system: HL-60(TB) leukemia
smiles,measurement,setting,value
COc1ccc2[nH]c3c(c2c1)CC(=O)N1CCC[C@H](C1)CC31OCCCO1,TGI,[1],> 100 µM
same,TGI,[2],> 100 µM
same,TGI,[3],> 100 µM
same,TGI,[4],> 100 µM
same,TGI,[5],> 100 µM
same,TGI,[6],> 100 µM
same,TGI,[7],> 100 µM
same,TGI,[8],> 100 µM
same,TGI,[9],> 100 µM
same,TGI,[10],> 100 µM
same,TGI,[11],> 100 µM
same,TGI,[12],> 100 µM
same,TGI,[13],> 100 µM
same,TGI,[14],> 100 µM
same,TGI,[15],> 100 µM
same,TGI,[16],> 100 µM
same,TGI,[17],> 100 µM
same,TGI,[18],> 100 µM
same,TGI,[19],> 100 µM
same,TGI,[20],> 100 µM
same,TGI,[21],> 100 µM
same,TGI,[22],> 100 µM
same,TGI,[23],> 100 µM
same,TGI,[24],> 100 µM
same,TGI,[25],> 100 µM
same,TGI,[26],> 100 µM
same,TGI,[27],> 100 µM
same,TGI,[28],> 100 µM
same,TGI,[29],> 100 µM
same,TGI,[30],> 100 µM
same,TGI,[31],> 100 µM
same,TGI,[32],> 100 µM
same,TGI,[33],> 100 µM
same,TGI,[34],> 100 µM
same,TGI,[35],> 100 µM
same,TGI,[36],> 100 µM
same,TGI,[37],> 100 µM
same,TGI,[38],> 100 µM
same,TGI,[39],> 100 µM
same,TGI,[40],> 100 µM
same,TGI,[41],> 100 µM
same,TGI,[42],> 100 µM
same,TGI,[43],> 100 µM
same,TGI,[44],> 100 µM
same,TGI,[45],> 100 µM
same,TGI,[46],> 100 µM
same,TGI,[47],> 100 µM
same,TGI,[48],> 100 µM
same,TGI,[49],> 100 µM
same,TGI,[50],> 100 µM
same,TGI,[51],> 100 µM
same,TGI,[52],> 100 µM
same,TGI,[53],> 100 µM
NC1=Nc2ccccc2Sc2cccc(F)c21,TGI,[1],> 100 µM
same,TGI,[2],> 100 µM
same,TGI,[3],> 100 µM
same,TGI,[4],> 100 µM
same,TGI,[5],> 100 µM
same,TGI,[6],> 100 µM
same,TGI,[7],> 100 µM
same,TGI,[8],> 100 µM
same,TGI,[9],> 100 µM
same,TGI,[10],> 100 µM
same,TGI,[11],> 100 µM
same,TGI,[12],> 100 µM
same,TGI,[13],56.9 µM
same,TGI,[14],> 100 µM
same,TGI,[54],> 100 µM
same,TGI,[15],> 100 µM
same,TGI,[16],> 100 µM
same,TGI,[17],> 100 µM
same,TGI,[18],> 100 µM
same,TGI,[55],> 100 µM
same,TGI,[19],> 100 µM
same,TGI,[20],> 100 µM
same,TGI,[21],> 100 µM
same,TGI,[22],> 100 µM
same,TGI,[23],> 100 µM
same,TGI,[24],> 100 µM
same,TGI,[25],> 100 µM
same,TGI,[56],> 100 µM
same,TGI,[26],> 100 µM
same,TGI,[27],> 100 µM
same,TGI,[28],> 100 µM
same,TGI,[29],> 100 µM
same,TGI,[57],> 100 µM
same,TGI,[30],> 100 µM
same,TGI,[31],> 100 µM
same,TGI,[32],> 100 µM
same,TGI,[33],> 100 µM
same,TGI,[34],> 100 µM
same,TGI,[35],> 100 µM
same,TGI,[36],> 100 µM
same,TGI,[37],> 100 µM
same,TGI,[38],> 100 µM
same,TGI,[39],> 100 µM
same,TGI,[40],> 100 µM
same,TGI,[41],> 100 µM
same,TGI,[42],> 100 µM
same,TGI,[43],> 100 µM
same,TGI,[44],> 100 µM
same,TGI,[45],> 100 µM
same,TGI,[58],> 100 µM
same,TGI,[46],> 100 µM
same,TGI,[47],> 100 µM
same,TGI,[48],> 100 µM
same,TGI,[49],> 100 µM
same,TGI,[50],> 100 µM
same,TGI,[51],> 100 µM
same,TGI,[59],88 µM
same,TGI,[53],> 100 µM
CC[C@]12C=CCN3CC[C@@]4(c5cc(Br)c(OC)cc5N(C)[C@H]4[C@@](O)(C(=O)NC(Cc4c[nH]c5ccccc45)C(=O)OC)[C@@H]1O)[C@@H]32 (stereo not given in full),TGI,[1],> 100 µM
same,TGI,[2],> 100 µM
same,TGI,[3],> 100 µM
same,TGI,[4],> 100 µM
same,TGI,[5],> 100 µM
same,TGI,[6],> 100 µM
same,TGI,[7],> 100 µM
same,TGI,[9],> 100 µM
same,TGI,[10],> 100 µM
same,TGI,[11],> 100 µM
same,TGI,[12],> 100 µM
same,TGI,[13],> 100 µM
same,TGI,[14],> 100 µM
same,TGI,[54],> 100 µM
same,TGI,[15],> 100 µM
same,TGI,[16],> 100 µM
same,TGI,[17],> 100 µM
same,TGI,[18],> 100 µM
same,TGI,[55],> 100 µM
same,TGI,[19],21 µM
same,TGI,[20],> 100 µM
same,TGI,[21],> 100 µM
same,TGI,[22],> 100 µM
same,TGI,[23],75.8 µM
same,TGI,[24],> 100 µM
same,TGI,[25],> 100 µM
same,TGI,[56],90.9 µM
same,TGI,[26],> 100 µM
same,TGI,[27],46.3 µM
same,TGI,[28],98.6 µM
same,TGI,[29],> 100 µM
same,TGI,[57],> 100 µM
same,TGI,[30],> 100 µM
same,TGI,[32],> 100 µM
same,TGI,[34],> 100 µM
same,TGI,[35],> 100 µM
same,TGI,[36],34.9 µM
same,TGI,[37],> 100 µM
same,TGI,[39],> 100 µM
same,TGI,[40],> 100 µM
same,TGI,[42],> 100 µM
same,TGI,[43],> 100 µM
same,TGI,[44],> 100 µM
same,TGI,[45],> 100 µM
same,TGI,[58],> 100 µM
same,TGI,[46],> 100 µM
same,TGI,[47],> 100 µM
same,TGI,[48],> 100 µM
same,TGI,[49],> 100 µM
same,TGI,[50],> 100 µM
same,TGI,[51],> 100 µM
same,TGI,[52],> 100 µM
same,TGI,[59],91.3 µM
same,TGI,[53],> 100 µM
